The values below come from paper PMC8196580, “Identification of Kaurane-Type Diterpenes as Inhibitors of Leishmania Pteridine Reductase I” (Molecules, 2021).

Like-named read-outs stand apart in the source and are kept apart here.

Test [1] has as its system L. major. Details: method as in ChEMBL; call rule not given here. Particulars: ref ChEMBL, cited from earlier work.
Test [2] deals with L. major. Put plainly: ChEMBL dataset of pIC50 values against L. major used for the RF model (Table S1). Type of test: cell-based, Leishmania major. An excerpt:
From the ChEMBL database (https://www.ebi.ac.uk/chembl/, accessed on 10 January 2021), we selected a diverse set of 1085 structures that were initially classified according to their predicted activity against L. major.
Excluding these structures minimized the differences in activity values resulting from errors and differences in experimental protocols. […] Standardizer software [JChem, version 16.11.28 (2016), calculation module developed by ChemAxon, https://www.chemaxon.com/, accessed on 20 January 2021] was used to canonize all simplified molecular-input line-entry system (SMILES) codes. After duplicate structures were removed, those with higher pIC50 values were eliminated, facilitating the generation of more restrictive models.

Setting [3] is: ChemBL structures with pIC50 values used for Random forest model construction, L. major.
Setting [4] is: Active/Inactive class assigned to the ChEMBL pIC50 value for Random forest model construction, ref ChEMBL.
The mark [5] stands for this setting: ChemBL structures with pIC50 values used for Random forest model construction (Table S1).
Setting [6] is: Active/Inactive class assigned to ChemBL structures for Random forest model construction (Table S1).

On to `COc1cc(OC)c2c(C)[n+](-c3ccccc3)c(C)cc2c1.[O-][Cl+3]([O-])([O-])[O-]` [CHEMBL3706858], for which the “pIC50 Value” in test [1] (setting [3]) is 4.58. For the same compound, the Outcome entry in test [2] (setting [4]) is reported as “Inactive”.

As to `Cc1ccc2cc(/C=C/C(=O)c3ccc(C)s3)c(Cl)nc2c1` [CHEMBL1940853], in test [1] (setting [5]), the “pIC50 Value” is 5.65. In addition, the Outcome entry in test [2] (setting [6]) is on record as “Active”.

With `O=C(CBr)N1c2ccccc2Oc2ccc(Cl)cc21` [CHEMBL3759174], in test [1] (setting [3]), the “pIC50 Value” is reported as 4.00. Moreover, the Outcome result in test [2] (setting [4]) is recorded as “Inactive”.

For `COc1cc(OC)c2c(C)[n+](-c3ccccc3)c(C)cc2c1.[Cl-]` [CHEMBL3706859], the “pIC50 Value” in test [1] (setting [3]) is given as 4.33. Moreover, the Outcome entry in test [2] (setting [4]) is reported as “Inactive”.

Consider `O=C(/C=C/c1ccc(-n2ccnc2)cc1)c1ccccc1Br` [CHEMBL569130], for which, in test [1] (setting [5]), the “pIC50 Value” was 5.61. In addition, in test [2] (setting [6]), the Outcome entry is on record as “Active”.

Take `CC[C@H](CO)Nc1nc(NCc2cccc(C)c2O)c2ncn(C(C)C)c2n1` [CHEMBL3423079]: the “pIC50 Value” in test [1] (setting [3]) was 4.70. For the same compound, the Outcome result in test [2] (setting [4]) was “Inactive”.

Turning to `NC(=O)c1ccc(-c2c(-c3ccccc3)nc3ccccn23)cc1` [CHEMBL2151865], the “pIC50 Value” in test [1] (setting [3]) is listed as 4.57. Moreover, in test [2] (setting [4]), the Outcome entry is given as “Inactive”.

As to `CC(=O)C1=C(CNc2ccc(C(=O)/C=C/c3ccc(N(C)C)cc3)cc2)N(C)C(=O)NC1c1ccccc1` (centres unmarked) [CHEMBL3787141], in test [1] (setting [5]), the “pIC50 Value” is recorded as 5.86. Moreover, the Outcome entry in test [2] (setting [6]) was “Active”.

`Cc1ccc(/C=C2/C(=O)NN(c3ccc(F)cc3)C2=O)o1` [CHEMBL1256858]: the “pIC50 Value” in test [1] (setting [3]) is given as 4.04. Besides, the Outcome entry in test [2] (setting [4]) is “Inactive”.

With `Clc1cccc(-c2nc3ccccn3c2-c2ccccc2)c1` [CHEMBL2151878], the “pIC50 Value” in test [1] (setting [5]) was 5.36. Also, in test [2] (setting [6]), the Outcome result was “Active”.

On to `CCCCN1CN(CC(=O)OCC)CSC1=S` [CHEMBL4294357], for which the “pIC50 Value” in test [1] (setting [3]) is reported as 4.44. The Outcome result in test [2] (setting [4]) is “Inactive”.

In the case of `CC(=O)N1c2ccccc2Oc2ccccc21` [CHEMBL2180182], the “pIC50 Value” in test [1] (setting [3]) is on record as 4.00. The Outcome result in test [2] (setting [4]) was “Inactive”.

For `COc1c(C)cc2cccc(OC)c2c1O` [CHEMBL2071227], the “pIC50 Value” in test [1] (setting [3]) is listed as 4.35. The Outcome entry in test [2] (setting [4]) is reported as “Inactive”.

For `O=[N+]([O-])c1cn2c(n1)OC[C@H](Oc1ccc(OC(F)(F)F)cc1)C2` [CHEMBL4078293], the “pIC50 Value” in test [1] (setting [5]) is 5.63. In addition, the Outcome entry in test [2] (setting [6]) is recorded as “Active”.

Take `COc1ccc(/C=N/NC(N)=S)cc1OCc1cn(-c2ccc(C(=O)O)cc2)nn1` [CHEMBL4174032]: the “pIC50 Value” in test [1] (setting [5]) is listed as 5.30. Besides, the Outcome entry in test [2] (setting [6]) is given as “Active”.

On to `Cc1cc(COP(N)(=O)N(CCCl)CCCl)ccc1[N+](=O)[O-]` (centres unmarked) [CHEMBL1256989], for which, in test [1] (setting [3]), the “pIC50 Value” is 4.52. The Outcome entry in test [2] (setting [4]) is listed as “Inactive”.

Take `Cn1cc(C=Nc2ccccc2)c2ccccc21` [CHEMBL2071552]: the “pIC50 Value” in test [1] (setting [5]) is given as 5.49. Besides, in test [2] (setting [6]), the Outcome entry is reported as “Active”.

As for `C/C(=N/NC(N)=S)c1ccc(OCc2cn(-c3ccc(S(N)(=O)=O)cc3)nn2)cc1` [CHEMBL4177394], in test [1] (setting [3]), the “pIC50 Value” was 5.08. In test [2] (setting [4]), the Outcome entry was “Active”.

`CC(=O)C1=C(C)NC(=O)NC1c1ccccc1` (centres unmarked) [CHEMBL1496818]: the “pIC50 Value” in test [1] (setting [5]) is 5.58. The Outcome entry in test [2] (setting [6]) is recorded as “Active”.

For the compound `C[C@H](OP(N)(=O)N(CCCl)CCCl)c1ccc([N+](=O)[O-])cc1` (some centres unmarked) [CHEMBL2158072], the “pIC50 Value” in test [1] (setting [3]) was 4.52. In test [2] (setting [4]), the Outcome result is on record as “Inactive”.

For the compound `COc1ccc(/C=N/NC(=O)c2ccc(-c3nnc(-c4ccccc4OC)o3)cc2)cc1O` [CHEMBL4069376], the “pIC50 Value” in test [1] (setting [3]) is given as 5.19. In addition, in test [2] (setting [4]), the Outcome entry is “Active”.

As to `Cc1ccc(/N=C/c2cn(C)c3ccccc23)cc1` [CHEMBL2071553], in test [1] (setting [5]), the “pIC50 Value” is given as 5.58. Also, the Outcome result in test [2] (setting [6]) is reported as “Active”.

Consider `CCOC(=O)C1=C(C)NC(C)=C(C(=O)OC)C1c1cccc([N+](=O)[O-])c1` (centres unmarked) [CHEMBL475534], for which, in test [1] (setting [3]), the “pIC50 Value” was 4.48. In test [2] (setting [4]), the Outcome result is listed as “Inactive”.

On to `Cc1ccc2cc(/C=C/C(=O)c3sccc3Cl)c(Cl)nc2c1` [CHEMBL1940855], for which, in test [1] (setting [5]), the “pIC50 Value” is recorded as 5.77. Also, in test [2] (setting [6]), the Outcome result was “Active”.

With `O=C(c1ccccc1Cl)N1CCN(c2nnc(-c3ccc([N+](=O)[O-])s3)s2)CC1` [CHEMBL458772], the “pIC50 Value” in test [1] (setting [3]) is listed as 4.46. For the same compound, the Outcome result in test [2] (setting [4]) is “Inactive”.

As for `COc1cc(/C=N/NC(N)=S)ccc1OCc1cn(CC(=O)c2ccc(F)cc2)nn1` [CHEMBL4170543], the “pIC50 Value” in test [1] (setting [3]) was 5.16. For the same compound, the Outcome result in test [2] (setting [4]) was “Active”.

For `COc1ccc(CN2CN(CC(=O)O)CSC2=S)cc1OC` [CHEMBL4291183], the “pIC50 Value” in test [1] (setting [3]) is 4.81. In test [2] (setting [4]), the Outcome entry is reported as “Inactive”.

In the case of `O=C(/C=C/C1=Cc2cc(Cl)ccc2OC1)c1ccccc1F` [CHEMBL1097964], the “pIC50 Value” in test [1] (setting [5]) is given as 5.65. In addition, in test [2] (setting [6]), the Outcome entry is “Active”.

For the compound `Cc1cccc2cc(C3CC(c4sccc4Cl)=NN3)c(Cl)nc12` (centres unmarked) [CHEMBL2236129], the “pIC50 Value” in test [1] (setting [5]) is on record as 5.63. Also, the Outcome entry in test [2] (setting [6]) was “Active”.

Turning to `CCN(CC)CCCNc1ccc(Nc2c3ccccc3nc3ccccc23)cc1` [CHEMBL89458], in test [1] (setting [5]), the “pIC50 Value” is 6.70. In addition, in test [2] (setting [6]), the Outcome result is reported as “Active”.

Turning to `COc1ccc(/C=N/NC(N)=S)cc1OCc1cn(CC(=O)c2ccc(F)cc2)nn1` [CHEMBL4167146], the “pIC50 Value” in test [1] (setting [5]) is recorded as 5.32. Besides, the Outcome entry in test [2] (setting [6]) is “Active”.

In the case of `C[C@]12CC[C@H](O)C[C@@H]1CC[C@@H]1[C@@H]2CC[C@@]2(C)[C@H]1CC[C@@H]2[C@@](C)(O)c1ccncc1` [CHEMBL1214241], the “pIC50 Value” in test [1] (setting [3]) is on record as 4.92. Moreover, the Outcome entry in test [2] (setting [4]) is listed as “Inactive”.

In the case of `Cc1cccc2cc(/C=C/C(=O)c3ccc(Br)s3)c(Cl)nc12` [CHEMBL1940870], the “pIC50 Value” in test [1] (setting [5]) is recorded as 5.70. Besides, in test [2] (setting [6]), the Outcome entry is reported as “Active”.

As to `COc1ccccc1C(=O)N/N=C/c1cc(O)cc(O)c1` [CHEMBL2382035], the “pIC50 Value” in test [1] (setting [3]) was 4.55. Also, the Outcome result in test [2] (setting [4]) is “Inactive”.

Regarding `COc1ccc(-[n+]2c(C)cc3cc(OC)cc(OC)c3c2C)cc1.F[B-](F)(F)F` [CHEMBL481565], the “pIC50 Value” in test [1] (setting [3]) is listed as 4.00. Besides, the Outcome result in test [2] (setting [4]) is “Inactive”.

Turning to `COc1ccccc1-c1nnc(-c2ccc(C(=O)N/N=C/c3ccncc3)cc2)o1` [CHEMBL4080524], in test [1] (setting [3]), the “pIC50 Value” was 4.41. Besides, the Outcome result in test [2] (setting [4]) is recorded as “Inactive”.

Consider `COc1ccc2c(c1)C=C(C(=O)/C=C/c1ccc(Cl)c(Cl)c1)CO2` [CHEMBL3329269], for which the “pIC50 Value” in test [1] (setting [5]) was 6.00. In addition, the Outcome result in test [2] (setting [6]) is listed as “Active”.

As for `CC1=N[C@H](C)Cc2c(-c3ccc(C)cc3)ccc(O)c21` [CHEMBL1275822], the “pIC50 Value” in test [1] (setting [3]) is reported as 4.07. In addition, in test [2] (setting [4]), the Outcome entry is “Inactive”.

Consider `COc1ccc(-c2nc3ccccn3c2-c2ccccc2)cc1` [CHEMBL2151881], for which the “pIC50 Value” in test [1] (setting [3]) is 4.58. In addition, the Outcome entry in test [2] (setting [4]) was “Inactive”.

Consider `CCOC(=O)C1=C(COCCN)NC(C)=C(C(=O)OC)C1c1ccccc1Cl` (centres unmarked) [CHEMBL1491], for which, in test [1] (setting [5]), the “pIC50 Value” was 5.47.

As for `COc1ccc(CCN(C)CCCC(C#N)(c2ccc(OC)c(OC)c2)C(C)C)cc1OC` (centres unmarked) [CHEMBL6966], the “pIC50 Value” in test [1] (setting [3]) is 4.39.
